Measured values: the supplement of paper PMC10307832

Columns and labels:
Assay in all cases: relative viability (nuclei count vs DMSO), 5 days (fraction); higher = more cells survive
[1] = compound: CCN(CCO)CCCC(C)Nc1ccnc2cc(Cl)ccc12 [Hydroxychloroquine] + Cc1nc(NC(=O)N2CCC[C@H]2C(N)=O)sc1-c1ccnc(C(C)(C)C(F)(F)F)c1 [Alpelisib] (partner 2 µM)
Outline: (§1)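 Relative viability was taken as the ratio of nuclei in treated wells to nuclei in vehicle wells. Lung cancer cell lines in 1536-well plates received compounds by pin tool one day after seeding, either one drug alone or a fixed anchor-drug dose plus five library-drug doses (not always all listed) in √10 steps. Nuclei were counted on 4× images after 5 days of treatment, and values are medians of duplicate plates.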

[2] = compound: CCN(CCO)CCCC(C)Nc1ccnc2cc(Cl)ccc12 [Hydroxychloroquine] + Cc1cc(Nc2cc(N3CCN(C)CC3)nc(Sc3ccc(NC(=O)C4CC4)cc3)n2)n[nH]1 [Tozasertib] (partner 0.1 µM)
Outline: as §1

[3] = compound: CCN(CCO)CCCC(C)Nc1ccnc2cc(Cl)ccc12 [Hydroxychloroquine] + Cc1nc(Nc2ncc(C(=O)Nc3c(C)cccc3Cl)s2)cc(N2CCN(CCO)CC2)n1 [Dasatinib] (partner 0.075 µM)
Outline: as §1

[4] = compound: CCN(CCO)CCCC(C)Nc1ccnc2cc(Cl)ccc12 [Hydroxychloroquine] + CCNC(=O)c1noc(-c2cc(C(C)C)c(O)cc2O)c1-c1ccc(CN2CCOCC2)cc1 [Luminespib] (partner 0.01 µM)
Outline: as §1

Row | Cell Line | relative viability ([1]; first compound 0.5 µM) | relative viability ([1]; first compound 1.581 µM) | relative viability ([1]; first compound 5 µM) | relative viability ([1]; first compound 15.81 µM) | relative viability ([1]; first compound 50 µM) | relative viability ([2]; first compound 0.5 µM) | relative viability ([2]; first compound 1.581 µM) | relative viability ([2]; first compound 5 µM) | relative viability ([2]; first compound 15.81 µM) | relative viability ([2]; first compound 50 µM) | relative viability ([3]; first compound 0.5 µM) | relative viability ([3]; first compound 1.581 µM) | relative viability ([3]; first compound 5 µM) | relative viability ([3]; first compound 15.81 µM) | relative viability ([3]; first compound 50 µM) | relative viability ([4]; first compound 0.5 µM) | relative viability ([4]; first compound 1.581 µM) | relative viability ([4]; first compound 5 µM) | relative viability ([4]; first compound 15.81 µM) | relative viability ([4]; first compound 50 µM)
1 | LXF-289 | 1 | 1 | 1.06 | 1.03 | 1.11 | 0.172 | 0.17 | 0.2 | 0.176 | 0.193 | 0.234 | 0.212 | 0.217 | 0.202 | 0.195 | 0.745 | 0.824 | 0.713 | 0.576 | 0.721
2 | NCI-H23 | 0.863 | 0.725 | 0.701 | 0.609 | 0.57 | 0.56 | 0.337 | 0.41 | 0.65 | 0.424 | 0.87 | 0.683 | 0.879 | 0.807 | 0.795 | 0.23 | 0.218 | 0.22 | 0.215 | 0.216
3 | NCI-H322M | 0.864 | 0.814 | 0.864 | 0.758 | 0.769 | 0.506 | 0.478 | 0.484 | 0.547 | 0.49 | 0.256 | 0.248 | 0.258 | 0.253 | 0.263 | 0.758 | 0.803 | 0.902 | 0.777 | 0.798
4 | NCI-H522 |  |  |  |  |  | 0.524 | 0.619 | 0.607 | 0.632 | 0.525 | 0.933 | 0.942 | 0.755 | 1.03 | 0.913 | 1.17 | 1.12 | 1.08 | 1.31 | 1.32
5 | NCI-H1563 | 0.908 | 0.877 | 1 | 0.888 | 0.871 |  |  |  |  |  | 0.509 | 0.501 | 0.449 | 0.475 | 0.421 | 0.521 | 0.579 | 0.488 | 0.567 | 0.496
6 | NCI-H1648 |  |  |  |  |  |  | 0.498 | 0.684 | 0.486 | 0.412 |  |  |  |  |  |  |  |  |  | 
7 | NCI-H1650 |  |  |  |  |  | 0.466 | 0.318 | 0.483 | 0.419 | 0.346 | 0.425 | 0.357 | 0.241 | 0.296 | 0.303 | 0.178 | 0.173 | 0.203 | 0.227 | 0.193
8 | NCI-H1703 | 0.401 | 0.21 | 0.326 | 0.343 | 0.367 |  |  |  |  |  |  |  |  |  |  |  |  |  |  | 
9 | NCI-H1792 | 0.677 | 0.698 | 0.65 | 0.392 | 0.664 |  |  |  |  |  | 0.922 | 0.936 | 0.759 | 0.825 | 0.711 | 0.434 | 0.503 | 0.472 | 0.698 | 0.442
10 | NCI-H2342 |  |  |  |  |  | 0.493 | 0.467 | 0.439 | 0.508 | 0.627 | 0.338 | 0.312 | 0.32 | 0.292 | 0.34 | 0.606 | 0.668 | 0.706 | 0.69 | 0.809
11 | SW 900 |  |  |  |  |  | 0.517 | 0.531 | 0.548 | 0.74 | 0.572 | 0.586 | 0.574 | 0.671 | 0.528 | 0.559 | 0.156 | 0.176 | 0.195 | 0.17 | 0.177
